Values quoted from earlier work in patent USRE48948E1, “Clonidine compounds in a biodegradable polymer” (priority 2008, dated 2022).
Counter-ions that a name gives are not always drawn.

What was measured:
post-surgical knee pain = settings: Intra-articular administration of 150 mcg
[1] = in vivo

| SMILES | relief of post-surgical knee pain (post-surgical knee pain) | plasma concentration above which antihypertensive effects become evident [1] | systemic concentration associated with spinal analgesia [1] |
| --- | --- | --- | --- |
| Clc1cccc(Cl)c1N=C1NCCN1 [clonidine HCL] | as effective as morphine | – | – |
| Clc1cccc(Cl)c1N=C1NCCN1 [clonidine, 2,6-dichloro-N-2-imidazolidinyldenebenzenamine] | – | above 500 pg/mL | approximately 2 ng/mL |
